This is an account of results in patent US20050215604A1, “Combination therapies with epothilones and carboplatin” (Kosan Biosciences, Inc., priority 2004, published 2005).

The test system of data set [1] is human NSCLC cell lines A549, H23, H226, H358, H460, and H522. As to the kind of experiment: MTS cell viability assay across the NSCLC panel, single agents and constant-ratio combination. The data set is classed as cell-based. The following applies: single agent, 1 pM to 10 μM, 3 days; carboplatin judged at 10,000 nM. On the procedure: (§1) The human NSCLC (non-small cell lung cancer) cell lines A549, H23, H226, H358, H460, and H522 were seeded in 96 well plates (5000 cells/well); after overnight incubation, the cells were treated with epothilone D or carboplatin alone or epothilone D and carboplatin in combination. Once the IC50 value of each drug was obtained, the combined drug treatment was designed at constant ratios of the two drugs and the treatment schedule varied: either epothilone D or carboplatin was administered first with the second drug added 24 hours later. Cell viability was assayed by the MTS assay. […] Cells were treated with epothilone D or carboplatin at varying concentrations, ranging from 1 pM to 10 μM, for 3 days. Cell viability was determined using the using the MTS assay (Promega). IC50 is defined as the concentration of drug required to inhibit cell growth by 50%.

Data set [2] has as its system human lung cancer xenograft MV522. As to the kind of experiment: Human lung cancer xenograft in nude mice. Particulars: ip, epothilone D twice a day for 7 days (6 to 14 mg/kg/day), carboplatin daily for 5 days (10 to 40 mg/kg/day), dose dependent. The data set is classed as in vivo. Here is the method: (§2) The drug combination was also tested in nude mice bearing the human lung cancer xenografts MV522 and SK-MES. Fragments of human tumor carcinomas harvested from subcutaneously growing tumors in nude mice hosts were implanted subcutaneously. When tumors were approximately 60-75 mg in size (10-14 days after implantation), mice were pair matched into treatment and control groups. Epothilone D was given intraperito-neally twice a day for 7 days (6 to 14 mg/kg/day), carboplatin intraperitoneally every daily for 5 days (10 to 40 mg/kg/day), various combinations of epothilone D (first) and carboplatin (second), or vehicle control.

The test system of data set [3] is human lung cancer xenograft SK-MES. As to the kind of experiment: Human lung cancer xenograft in nude mice. The data set is classed as in vivo. Particulars: ip, epothilone D twice a day for 7 days (6 to 14 mg/kg/day), carboplatin daily for 5 days (10 to 40 mg/kg/day), dose dependent. On the procedure:
as §2

For another data set, the system named is A549. As to the kind of experiment: MTS cell viability assay, single agents. Particulars: Homo sapiens, A549, 72 h, read-out: IC50 (concentration of drug required to inhibit cell growth by 50%). The data set is classed as cell-based. On the procedure: as §1
The test system of a further data set is H226. As to the kind of experiment: MTS cell viability assay, single agents. The data set is classed as cell-based. Particulars: Homo sapiens, NCI-H226, 72 h, read-out: IC50 (concentration of drug required to inhibit cell growth by 50%). Here is the method:
as §1

In another data set the test system is H23. As to the kind of experiment: MTS cell viability assay, single agents. The data set is classed as cell-based. Particulars: Homo sapiens, NCI-H23, 72 h, read-out: IC50 (concentration of drug required to inhibit cell growth by 50%). On the procedure: as §1
A further data set relates to H358. As to the kind of experiment: MTS cell viability assay, single agents. The data set is classed as cell-based. The following applies: Homo sapiens, NCI-H358, 72 h, read-out: IC50 (concentration of drug required to inhibit cell growth by 50%). Here is the method:
as §1

A further data set relates to H460. As to the kind of experiment: MTS cell viability assay, single agents. The following applies: Homo sapiens, NCI-H460, 72 h, read-out: IC50 (concentration of drug required to inhibit cell growth by 50%). The data set is classed as cell-based. On the procedure: as §1
In another data set the test system is H522. As to the kind of experiment: MTS cell viability assay, single agents. Particulars: Homo sapiens, NCI-H522, 72 h, read-out: IC50 (concentration of drug required to inhibit cell growth by 50%). The data set is classed as cell-based. Here is the method:
as §1

Structures are written as SMILES.

Consider `[NH2][Pt]1([NH2])[O]C(=O)C2(CCC2)C(=O)[O]1` [Carboplatin, carboplatin], for which, in data set [1], the “cytotoxic effects against cultured NSCLC human cancer cell lines” value is “essentially inactive”. The “antiproliferative activity (measured as tumor size), single agent” value in data set [2] and in [3] was “antiproliferative activity” each time.
Consider `C/C1=C/CC(/C(C)=C/c2csc(C)n2)OC(=O)C[C@H](O)C(C)(C)C(=O)[C@H](C)[C@@H](O)[C@@H](C)CCC1` (stereo partly drawn) [Epothilone D, epothilone D], for which the IC50 with A549 worked out at 40 nM; with H226, 50 nM; with H23, 37 nM; in the data set with H358, 40 nM; in the data set with H460, 33 nM; in the data set on H522 it was 40 nM. The “cytotoxic effects against cultured NSCLC human cancer cell lines” value in data set [1] is reported as “potent cytotoxic effects”. In addition, the “antiproliferative activity (measured as tumor size), single agent” value in data set [2] and in data set [3] was “antiproliferative activity” throughout.
